Test results taken from article PMC10072326, “Promising anticancer agents based on 8-hydroxyquinoline hydrazone copper(II) complexes” (Frontiers in Chemistry, 2023).

Columns and labels:
[1] = test system: A-549 cells; assay: ROS activation via dihydroethidium staining, flow cytometry; assay type: cell-based
From the text: Since reactive oxygen species appeared to be involved in the nicking activity of the complexes (Supplementary Figure S24), we investigated whether there was an increase in ROS formation in cells upon drug treatment. Dihydroethidium (DHE) is a reduced form of ethidium, after oxidation with superoxide (ROS), it is converted into 2-hydroxy ethidium, which is a chemical that emits red fluorescence and intercalates DNA. […] Similar results were obtained using A-549 cells, but with much milder induction of ROS except for 8, which remained high (Supplementary Figure S26).
(§1) 5 × 10^4 number of A-375 and A-549 cells were seeded on 12-well plates, and the next day cells were treated with either copper complexes (calculated IC70 values) or cisplatin (15 μM). Following 48 h of treatment, cells were trypsinized, centrifuged and resuspended in PBS solution supplemented with 1% fetal bovine serum (FBS) (10^6 cells/mL).
Oxidative stress levels were assessed by Muse Oxidative Stress Kit (Luminex, MCH100111) using the same protocol as previously described (21).

[2] = test system: Klebsiella pneumoniae ATCC 49619; assay: MIC determination; assay type: cell-based; settings: K. pneumoniae; 18 h
Description: (§2) Wild-type Escherichia coli K-12 AG100 strain [argE3 thi-1 rpsL xyl mtl Δ(gal-uvrB) supE44] expressing the AcrAB TolC efflux pump at its basal level and Klebsiella pneumoniae ATCC 49619 Gram-negative strains were studied in the experiments. Sensitive (ATCC 25928) and the methicillin-resistant (MRSA 272123) subspecies of Staphylococcus aureus were used as Gram-positive strains in the assays.
(§3) Minimum inhibitory concentration (MIC) values of selected compounds were determined in 96-well plates based on the Clinical and Laboratory Standard Institute guidelines (CLSI guidelines). The stock solutions of the compounds were dissolved in DMSO using 1.3 μL of Mueller Hinton Broth, and then two-fold serial dilutions were performed. The starting concentration of the compounds was 100 μM. Then 10^‒4 dilution of an overnight bacterial culture in 100 μL of medium was added to each well, except for the medium control wells.

[3] = test system: Escherichia coli K-12 AG100; assay: MIC determination; assay type: cell-based; settings: E. coli; 18 h
Description: as §2, §3

[4] = test system: A-375 cells; assay: Cytotoxicity with ROS scavenger NAC (SRB); assay type: cell-based; settings: 10 mM NAC pre-treatment 2 h, co-treatment 72 h
From the text: (§4) Additionally, to assess whether the ROS induction contributed to the cytotoxicity triggered by these complexes, we used a ROS scavenger, N-acetyl-cysteine (NAC), in combination with 1, 3, 5 or 8. […] Indeed, it is also possible that the cytotoxicity induced by 5 is not by ROS, despite the induction observed in Figure 7A.
(§5) Figure S27- Protective mechanism of NAC against Cu(II) complexes. Addition of NAC can protect cells from the cytotoxic effects of the Cu(II) complexes A-375 (A) and A-549 (B) cells were pre-treated with 10 mM of ROS scavenger N-acetylcysteine (NAC) for 2 h, then co-treated with freshly prepared Cu(II) complexes (1, 3, 5 and 8) for 72 h. Cell viability was measured via SRB assay (2 biological replicates, each done in duplicate). The error bars represent standard error of the mean. Student t-test was used for statistical analysis, *p<0.05, **p<0.01

[5] = test system: A-549 cells; assay: Cytotoxicity with ROS scavenger NAC (SRB); assay type: cell-based; settings: 10 mM NAC pre-treatment 2 h, co-treatment 72 h
From the text: as §4, §5

[6] = test system: S. aureus ATCC 25928; assay: MIC determination; assay type: cell-based, Staphylococcus aureus; settings: S. aureus ATCC 25928 (sensitive); 18 h
Description: as §2, §3

[7] = test system: S. aureus MRSA 272123; assay: MIC determination; assay type: cell-based, Staphylococcus aureus; settings: 18 h
Description: as §2, §3

[8] = test system: A-375 cells; assay: γH2AX staining for DNA double-strand breaks; assay type: cell-based
Description: Indeed, we examined whether DNA nicks induced by the complexes on pure plasmid DNA would reflect in cell culture as increased DNA break formation. To test this, A-375 cells were stained using γH2AX, which is a common marker for DSBs (Figure 7B). […] For complex 1 the opposite effect was observed and despite its lower ability to induce ROS formation, the DSB were the highest among the group.
as §1
The Muse ɣH2A.X Activation Dual Detection Kit (Luminex, MCH200101) protocols were followed with minor changes. 1 × 10^5 cells were mixed with ice-cold 1X Fixation Buffer at the same volume for 5 min. Cells were centrifuged (600 g, 5 min), and the pellet was suspended with 100 μL of ice-cold 1X Permeabilization Buffer (10 min, on ice), and centrifuged again. The cell pellet was resuspended with 50 μL of antibody mixture of (20X) Anti-phospho-Histone H2A.X (Ser139), Alexa Fluor 555 and (20X) Anti-H2A.X, PECy5 antibodies. Following 30 min of antibody staining, cells were centrifuged and resuspended with 1X Assay Buffer. DNA breaks were analysed with Muse Cell Analyzer (Merck Millipore).

[9] = Thermodynamic solubility at pH 7.4; assay type: physicochemical; settings: Cu(II) complexes; pH 7.40; 20 mM HEPES; 25.0°C
Description: Thermodynamic solubility (S) was measured for the new ligands, L^7 and L^8, since data for the rest of the series was previously reported (9), and for selected Cu(II) complexes: 1, 5 and 6. Solubility was measured for the saturated solutions in water at pH 7.40 in 20 mM HEPES at 25.0 ± 0.1 °C. The concentration was determined by UV-Vis spectrophotometry using the stock solutions of the compounds with known concentrations dissolved in 100% DMSO, 50% and 25% (v/v) DMSO/buffered aqueous solutions for the calibration.

[10] = test system: A-375 cells; assay: Apoptosis by Annexin V/7-AAD and Caspase 3/7 flow cytometry; assay type: cell-based; settings: 48 h, Annexin-V and caspase 3/7
Description: To determine the mode of cell death, A-375 cells were incubated with the Cu complexes and cisplatin for 48 h and, induction of apoptosis was evaluated using both Annexin-V staining and activation of caspase 3/7 in response to drug treatment. While Annexin-V staining relies on the loss of plasma membrane asymmetry, caspases 3 and 7 are critical proteases, which are responsible for the cleavage of many cellular proteins. […] Similar results were obtained in A-549 cells (Supplementary Figure S28).
as §1
Annexin V & Dead Cell Kit (Luminex, MCH100105) protocols were followed for Annexin V activation. Briefly, 1 × 10^5 cells were stained with Annexin V and 7-AAD solution in a 1:1 ratio and incubated at room temperature for 20 min. The apoptotic cell population was evaluated with Muse Cell Analyzer (Merck Millipore).
Caspase-3/7 Kit (Luminex, MCH100108) protocols were followed for Caspase 3/7 staining. 2 × 10^5 cells were stained with 5 μL of Caspase 3/7 antibody (1:8 dilution in PBS) and incubated at room temperature for 30 min. Then, the cells were stained with 100 μL of 7-AAD antibody mixture (1:75 dilution with 1 × Assay Buffer) for 5 min. Caspase 3/7 and 7-AAD positivity were assessed with Muse Cell Analyzer (Merck Millipore).

[11] = test system: A-375 cells; assay: Sulforhodamine B (SRB) cell viability assay; assay type: cell-based; settings: 72 h
Description: (§6) Copper compounds were tested, along with the free ligands and cisplatin as the positive control, for their cytotoxicity on both melanoma (A-375) and lung adenocarcinoma (A-549) cell lines in the concentration range 0.78–50 μM. Following 72 h of incubation, cell viability was measured via sulforhodamine B (SRB) assay (Supplementary Figure S25).
(§7) A-375 cells (ATCC, CRL-3222) were grown in Dulbecco’s Modified Eagle Medium with high glucose (Gibco #11965118) and A-549 (ATCC, CCL-185) cells were grown in Dulbecco’s Modified Eagle Medium F-12 (Gibco #11320033), supplemented with 10% FBS (Gibco, #10500064) and Penicillin-Streptomycin (10,000 U/mL, Gibco, #15140122). Cells were incubated at 37 °C, 5% CO2 incubator and subcultured every 3 days.
(§8) All the tested complexes were dissolved in DMSO (10 mM stock solution), and aliquots were stored at -20 °C, thawed on the experiment day and used only once. For SRB cell viability assay, A-375 and A-549 cells were seeded on 96-well plates (4×10^3 cells/well) and treated with serial dilutions of indicated compounds (with a concentration range of 0-50 μM, 72 h). Trichloroacetic acid (TCA) was added to wells for fixation at a final concentration of 10%, for 1 h at 4 °C. Each well was washed five times with ddH2O, dried, and incubated with 0.4% (w/v) SRB dye (50 µL/well) for 30 min at room temperature. The wells were washed with 1% acetic acid (v/v) five times, and 150 µL of 10 mM Tris solution was added to dissolve the stain. Colorimetric measurements were taken at λ = 564 nm. Viability percentage was calculated as follows: % Cell Viability = [100 × (sample Abs.-blank) / (non-treated control Abs.-blank)].

[12] = test system: A-549 cells; assay: Sulforhodamine B (SRB) cell viability assay; assay type: cell-based; settings: 72 h
Description: as §6, §7, §8

For `[Cu+2].[O-]C(=NN=Cc1ccc2cccc([O-])c2n1)c1ccncc1` [Complex 8, [Cu(L^8)]3], which “ROS induction, in words” value [1] is on record?
The value was “remained high”.

And the MIC [2]?
The MIC was over 100 µM.

What about the MIC [3] of the same compound?
The MIC was over 100 µM.

And the “effect of NAC on cytotoxicity” value [4]?
The value was “significantly reduced”.

And the “effect of NAC on cytotoxicity” value [5]?
Its value is “significantly reduced”.

And the MIC [6]?
The MIC was over 100 µM.

And the MIC [7]?
Its MIC is over 100 µM.

And the “DSB induction (γH2AX), in words” value [8]?
Its value is “highest levels of DSB induction”.

What about the “thermodynamic solubility S 7.4” value [9] of the same compound?
Its value is 3.3 ± 0.3 µM.

What about the “induction of apoptosis, in words” value [10] of the same compound?
The value was “most effective drug among the complexes tested”.

What about the IC50 [11] of the same compound?
The IC50 was 2.8 ± 0.4 µM.

And the IC50 [12]?
The IC50 was 5.1 ± 0.2 µM.
